Measurements from PubChem BioAssay AID1845212 (Molecular Pharmacology Branch, DTP, NCI, 2023).
Where “and” joins values, the source holds several entries; their conditions need not be identical. Identical values can stand only once. Calls of active or inactive are those of the source. The calls were made as follows: active = viability on the fitted dose curve at most 10% of control; inactive = the rest.

Tested on: NCI-H719 tumor spheroids, viability
Test: Anticancer human tumor NCI-H719 cell line growth inhibition;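 as to IC50: spheroids exposed to compounds for seven days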;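 as to viability, T/C: spheroids exposed to compounds for seven days; percent viability relative to DMSO vehicle control as 100%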
Conditions: spheroids with HUVEC and MSC; for viability, T/C: stronger effect = lower value
Source text: Multicellular complex tumor spheroid response to DNA repair inhibitors in combination with DNA-damaging drugs
This study explores the anticancer activities of DNA-damaging drugs and inhibitors of DNA damage repair, both as single agents and in combinations. Complex tumor spheroids comprised of malignant cells, endothelial cells and mesenchymal stem cells served as an in vitro model for human solid tumors. This model system incorporates physiologically relevant features and patient-derived or established malignant cell lines with clinically relevant genetic alterations from many tumor types. Twenty-six patient-derived or established malignant cell lines were evaluated representing sarcoma, melanoma, small cell lung cancer (SCLC), non-small cell lung cancer (NSCLC), as well as bladder, ovarian and pancreatic cancers. The concentration ranges selected for each drug and investigational agent were based upon clinically achievable concentrations if the clinical Cmax of the agent was known.
Compounds. The drugs and compounds olaparib (NSC753686), talazoparib (NSC767125), berzosertib (NSC777718), elimusertib (NSC800525), nedisertib (NSC802822), VX-984 (NSC792969), AZD-1390 (NSC803789), temozolomide (NSC362856), topotecan (NSC609699), trabectedin (NSC813783), staurosporine (NSC755774), and gemcitabine (NSC613327) were obtained from the National Cancer Institute (NCI) Developmental Therapeutics Program Chemical Repository. The FDA-approved anticancer drug set is available from the Developmental Therapeutics Program at https://dtp.cancer.gov/organization/dscb/obtaining/available_plates.htm. […] The stock solutions were prepared in dimethyl sulfoxide (DMSO, Sigma-Aldrich, St. Louis, MO, cat. D2650) at 400-fold the tested concentration and stored at -70 degrees C. Prior to their use, the stock solutions were diluted in fresh medium and the final DMSO concentration in the assay was 0.25% (v/v). All drugs and investigational agents were tested over a range starting from a high concentration at or near the clinical Cmax and decreasing in half-log increments. If the clinical Cmax for an agent had not been determined, the highest concentration tested was 10 microM.
Cell Lines. The patient-derived cancer cell (PDC) lines: 156681-154-R-J1-PDC, 283228-195-R-J1-PDC, 287954-098-R-J1-PDC, 292921-168-R-J2-PDC, 349418-098-R-PDC, 425362-245-T-J1-PDC, 556581-035-R-J1-PDC, and BL0293-F563-PDC were received from the NCI Patient-Derived Models Repository (PDMR, https://pdmr.cancer.gov). The established cell lines HS-SY-2 (RRID:CVCL_8719), MPNST, and SYO-1 (RRID:CVCL_7146) were obtained from the Sloan Kettering Institute. The alveolar soft parts sarcoma cell line ASPS-1 (RRID:CVCL_S738) was established at the NCI and grown from internal seed stocks. The following established cell lines were purchased from the American Type Culture Collection (ATCC, Manassas, VA): G-401 (ATCC, cat. CRL-1441, RRID:CVCL_0270), SW982 (ATCC, cat. HTB-93, RRID:CVCL_1734), VA-ES-BJ (ATCC, cat. CRL-2138, RRID:CVCL_1785), NCI-H719 (ATCC, cat. CRL-5837, RRID:CVCL_1582), NCI-H196 (ATCC, cat. CRL-5823, RRID:CVCL_1509), NCI-H841 (ATCC, cat. CRL-5845, RRID:CVCL_1595), NCI-H1618 (ATCC, cat. CRL-5879, RRID:CVCL_1480), NCI-H1876 (ATCC, cat. CRL-5902, RRID:CVCL_1503), DMS 114 (ATCC, cat. CRL-2066; RRID:CVCL_1174), NCI-H211 (ATCC, cat. CRL-5824; RRID:CVCL_1529), and SW 1271 (ATCC, cat. CRL-2177, RRID:CVCL_1716). The small cell lung cancer cell line COR-L88 was purchased from Sigma-Aldrich (cat. 92031917-1VL, RRID:CVCL_1141). The non-small cell lung cancer cell lines NCI-H226 (RRID:CVCL_1544) and NCI-H322M (RRID:CVCL_1557) were established at the NCI and grown from internal seed stocks. Pooled donor human umbilical vein endothelial cells (HUVEC, Lonza, cat. CC-2519) and human mesenchymal stem cells (hMSC, Lonza, cat. PT-2501) were purchased from Lonza (Walkersville, MD).
Cell Culture. All cells were maintained in an incubator at 37 degrees C and 5% CO2 with 95% humidity. […]

[1] = compound alone, run of 12/16/2019

SMILES | viability, T/C (compound 0.0316 µM) | viability, T/C (compound 0.1 µM) | viability, T/C (compound 0.316 µM) | viability, T/C (compound 1 µM) | viability, T/C (compound 3.16 µM) | viability, T/C (compound 10 µM) | IC50 (curve of compound) | viability, T/C (compound 0.00949 µM) | viability, T/C (compound 0.03 µM) | viability, T/C (compound 0.0949 µM) | viability, T/C (compound 0.3 µM) | viability, T/C (compound 0.949 µM) | further results
CC(C)n1c(=O)n(C)c2cnc3cc(F)c(-c4ccc(OCCCN5CCCCC5)nc4)cc3c21 | 82.1% and 106% and 81.7% | 93.8% and 98.1% and 94.4% | 116% and 107% and 117% | 81.4% and 94.8% and 103% | 85.7% and 142% and 110% | 108% and 104% and 123% | > 10000 nM |  |  |  |  |  | 
CC1COCCN1c1cc(-c2ccnn2C)c2ccnc(-c3ccn[nH]3)c2n1 (stereo unspecified) | 59.9% and 73.9% and 62.1% | 60.1% and 43.6% and 50.1% | 23.8% and 26.8% and 29.1% | 11.2% and 14.3% and 10.5% | 11.6% and 8.2% and 8.17% | 13.3% and 9.71% and 10.8% | 137 nM and 80.4 nM and 106 nM |  |  |  |  |  | 
CC[C@@]1(O)C(=O)OCc2c1cc1n(c2=O)Cc2cc3c(CN(C)C)c(O)ccc3nc2-1 |  |  |  |  |  |  |  | 6.14% [middle of 10 runs] | 5.56% [middle of 10 runs] | 6.96% [middle of 10 runs] | 7.47% [middle of 10 runs] |  | viability, T/C (compound 0.003 µM): 44.5% [middle of 10 runs]; IC50 (compound alone, run of 11/07/2019): < 3 nM and 3.17 nM; IC50 [1]: 3.67 nM and 3.31 nM and < 3 nM
CNCc1ccc(-c2cc(-c3nc(-c4ccc(S(=O)(=O)C(C)C)cc4)cnc3N)on2)cc1 |  |  |  |  |  |  | 158 nM and 216 nM and 264 nM | 96.3% and 108% and 109% | 103% (2×) and 107% | 57.4% and 81.5% and 93.3% | 41.9% and 37.8% and 43.2% | 9.72% and 6.55% and 13.6% | 
COc1cc(C)[nH]c(=O)c1CN1CCc2c(Cl)cc(C(OC)C3COC3)c(Cl)c2C1=O (stereo unspecified) | 100% and 103% and 101% | 102% and 75.5% and 111% | 108% | 109% and 114% (2×) | 102% and 113% and 106% | 114% and 125% and 109% | > 10000 nM |  |  |  |  |  | 
COc1cc2c(cc1O)CCNC21CSC2c3c(OC(C)=O)c(C)c4c(c3C(COC1=O)N1C(O)C3Cc5cc(C)c(OC)c(O)c5C(C21)N3C)OCO4 (stereo unspecified) |  |  |  |  |  |  |  |  |  |  |  |  | viability, T/C (compound 94.9 pM): 36.8% [middle of 10 runs]; viability, T/C (compound 0.0003 µM): 8.36% [middle of 10 runs]; viability, T/C (compound 0.000949 µM): 7.96% [middle of 10 runs]; viability, T/C (compound 0.003 µM): 0.83% [middle of 9 runs]; IC50 [1]: 0.0663 nM [middle of 10 runs]
COc1ccc([C@@H](O)c2cc(-c3ncnc4cc(N5CCOCC5)ccc34)c(F)cc2Cl)nn1 | 103% and 90.6% and 75% | 109% and 83.6% and 83.3% | 79.3% and 76.5% and 84.2% | 65.6% and 58.1% and 69% | 47.3% and 57.3% and 87.8% | 15.5% and 53.7% and 58.8% | 2360 nM and > 10000 nM |  |  |  |  |  | 
Cc1cc(C)c(CNC(=O)c2cc(-c3ccc(CN4CCOCC4)cc3)cc3c2cnn3C2CCCC2)c(=O)[nH]1 | 80.8% and 102% and 115% | 83.4% and 99.2% and 117% | 84.8% and 97.1% and 111% | 79.3% and 108% and 121% | 114% and 92.6% and 103% | 77.5% and 87.8% and 72.1% | > 10000 nM |  |  |  |  |  | 
Cc1sc2c(c1C)C(c1ccc(Cl)cc1)=NC(CC(=O)Nc1ccc(O)cc1)c1nnc(C)n1-2 (stereo unspecified) |  |  |  |  |  |  | 104 nM and 156 nM and 140 nM | 95.3% and 98.3% and 94.6% | 95.8% and 95.1% and 102% | 47.7% and 63.8% and 60.6% | 22.9% and 31% and 24.5% | 4.99% and 4.88% and 4.46% | viability, T/C (compound 3 µM): 3.39% and 2.12% and 2.52%
Cn1ncnc1[C@H]1c2n[nH]c(=O)c3cc(F)cc(c23)N[C@@H]1c1ccc(F)cc1 |  |  |  |  |  |  | < 9.49 nM and 11.8 nM | 14.8% and 59.6% and 24.1% | 8.09% and 8.06% and 12.8% | 6.33% and 7.52% and 10% | 6.84% and 6.92% and 9.12% | 5.82% and 8.51% and 7.74% | viability, T/C (compound 3 µM): 6.37% and 7.94% and 7.04%
O=C(c1cc(Cc2n[nH]c(=O)c3ccccc23)ccc1F)N1CCN(C(=O)C2CC2)CC1 |  |  |  |  |  |  | 3090 nM and 2030 nM and 3150 nM |  |  | 90.1% and 105% and 85.6% | 61.4% and 93.6% and 95.1% | 71.1% and 82% and 81.4% | viability, T/C (compound 3 µM): 51.2% and 34.2% and 52.1%; viability, T/C (compound 9.49 µM): 30.8% and 7.1% and 16.9%
[2H]c1nc(C)nc([2H])c1-c1cc(NC[C@@H](C)c2cccc3c(C(=O)NC)ccnc23)ncn1 | 94% and 100% and 109% | 99.8% and 100% and 112% | 91.7% and 123% | 88.7% and 104% and 94.6% | 71.9% and 105% and 111% | 99.7% and 92.6% and 95.8% | > 10000 nM |  |  |  |  |  | outcome (compound 0.316 µM): inactive
